These results are taken from US12404285B2, “KRAS G12D proteolysis targeting chimeras” (PAQ Therapeutics Inc., priority 2022, dated 2025).

Structures are written as SMILES.

T1 sequence (P01116 1-188 isoform P01116-2 G12D): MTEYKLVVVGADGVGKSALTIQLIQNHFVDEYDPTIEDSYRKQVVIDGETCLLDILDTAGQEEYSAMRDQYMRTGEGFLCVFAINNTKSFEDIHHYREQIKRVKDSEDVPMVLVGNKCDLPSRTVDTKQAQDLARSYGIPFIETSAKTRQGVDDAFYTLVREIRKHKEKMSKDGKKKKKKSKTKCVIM

The test has as its target T1, KRAS (G12D)-HiBit in AsPc-1-KRAS (G12D)-HiBit-KI cell (Homo sapiens, UniProt P01116, G12D).
T1 construct: host or cells: AsPc-1-KRAS (G12D)-HiBit-KI cells (knock-in line)
Put plainly: G12D HiBit assay. It is filed as cell-based. The settings on record: 24 hours compound treatment, absolute DC50, read-out: Average PHA DC50. The method, boiled down:
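AsPc-1 cells with HiBiT knocked into KRAS G12D, seeded at 5×10^3/well and held overnight, then treated 24 h with 10-point 3-fold dilutions (300 nM to 0.015 nM). Lytic Nano-Glo HiBiT luminescence expressed as % of 0.1% DMSO control; absolute DC50 from curve fit.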
In the case of `C#Cc1c(F)ccc2cccc(-c3ncc4c(N5CC6CCC(C5)N6)nc(OC[C@@]56CCCN5[C@H](COC(=O)N5CCC(COC7CN(c8ccc9c(c8)n(C)c(=O)n9C8CCC(=O)NC8=O)C7)CC5)CC6)nc4c3F)c12` (stereo partly drawn) [Compound 102, [(3S,8S)-8-[[4-(3,8-Diazabicyclo[3.2.1]octan-3-yl)-7-(8-ethynyl-7-fluoro-1-naphthyl)-8-fluoro-pyrido[4,3-d]pyrimidin-2-yl]oxymethyl]-1,2,3,5,6,7-hexahydropyrrolizin-3-yl]methyl4-[[1-[1-(2,6-dioxo-3-piperidyl)-3-methyl-2-oxo-benzimidazol-5-yl]azetidin-3-yl]oxymethyl]piperidine-1-carboxylate], the DC50 is less than 100 nM.

Turning to `C#Cc1c(F)ccc2cccc(-c3ncc4c(N5CC6CCC(C5)N6)nc(OC[C@@]56CCCN5[C@H](COC(=O)N5CC7CCC(C5)C7CN5CCC(c7ccc8c(c7)n(C)c(=O)n8C7CCC(=O)NC7=O)CC5)CC6)nc4c3F)c12` (stereo partly drawn) [Compound 103, [(3S,8S)-8-[[4-(3,8-Diazabicyclo[3.2.1]octan-3-yl)-7-(8-ethynyl-7-fluoro-1-naphthyl)-8-fluoro-pyrido[4,3-d]pyrimidin-2-yl]oxymethyl]-1,2,3,5,6,7-hexahydropyrrolizin-3-yl]methyl8-[[4-[1-(2,6-dioxo-3-piperidyl)-3-methyl-2-oxo-benzimidazol-5-yl]-1-piperidyl]methyl]-3-azabicyclo[3.2.1]octane-3-carboxylate], the DC50 was less than 100 nM.

For the compound `C#Cc1c(F)ccc2cccc(-c3ncc4c(N5CC6CCC(C5)N6)nc(OC[C@@]56CCCN5[C@H](COC(=O)N5CC(COC7CCN(c8ccc9c(c8)n(C)c(=O)n9C8CCC(=O)NC8=O)CC7)C5)CC6)nc4c3F)c12` (stereo partly drawn) [Compound 104, [(3S,8S)-8-[[4-(3,8-Diazabicyclo[3.2.1]octan-3-yl)-7-(8-ethynyl-7-fluoro-1-naphthyl)-8-fluoro-pyrido[4,3-d]pyrimidin-2-yl]oxymethyl]-1,2,3,5,6,7-hexahydropyrrolizin-3-yl]methyl 3-[[1-[1-(2,6-dioxo-3-piperidyl)-3-methyl-2-oxo-benzimidazol-5-yl]-4-piperidyl]oxymethyl]azetidine-1-carboxylate], the DC50 was less than 100 nM.

Take `C#Cc1c(F)ccc2cccc(-c3ncc4c(N5CC6CCC(C5)N6)nc(OC[C@@]56CCCN5[C@H](COC(=O)N5CCC(CCOCC#Cc7ccc8c(c7)n(C)c(=O)n8C7CCC(=O)NC7=O)CC5)CC6)nc4c3F)c12` (stereo partly drawn) [Compound 105, [(3S,8S)-8-[[4-(3,8-diazabicyclo[3.2.1]octan-3-yl)-7-(8-ethynyl-7-fluoro-1-naphthyl)-8-fluoro-pyrido[4,3-d]pyrimidin-2-yl]oxymethyl]-1,2,3,5,6,7-hexahydropyrrolizin-3-yl]methyl 4-[2-[3-[1-(2,6-dioxo-3-piperidyl)-3-methyl-2-oxo-benzimidazol-5-yl]prop-2-ynoxy]ethyl]piperidine-1-carboxylate]: the DC50 was less than 100 nM.

Consider `C#Cc1c(F)ccc2cccc(-c3ncc4c(N5CC6CCC(C5)N6)nc(OC[C@@]56CCCN5[C@H](COC(=O)N5CCC(CN7CCN(c8ccc9c(c8)n(C)c(=O)n9C8CCC(=O)NC8=O)CC7)CC5)CC6)nc4c3F)c12` (some centres unmarked) [Compound 106], for which the DC50 was less than 100 nM.

In the case of `C#Cc1c(F)ccc2cccc(-c3ncc4c(N5CC6CCC(C5)N6)nc(OC[C@@]56CCCN5[C@H](COC(=O)N5CCC(OCCC#Cc7cccc8c7n(C)c(=O)n8C7CCC(=O)NC7=O)CC5)CC6)nc4c3F)c12` (stereo partly drawn) [Compound 107, [(3S,8S)-8-[[4-(3,8-diazabicyclo[3.2.1]octan-3-yl)-7-(8-ethynyl-7-fluoro-1-naphthyl)-8-fluoro-pyrido[4,3-d]pyrimidin-2-yl]oxymethyl]-1,2,3,5,6,7-hexahydropyrrolizin-3-yl]methyl 4-[4-[1-(2,6-dioxo-3-piperidyl)-3-methyl-2-oxo-benzimidazol-4-yl]but-3-ynoxy]piperidine-1-carboxylate], the DC50 was less than 100 nM.

As to `C#Cc1c(F)ccc2cccc(-c3ncc4c(N5CC6CCC(C5)N6)nc(OC[C@@]56CCCN5[C@H](COC(=O)N5CCC(CN(C)C7CCN(c8cccc9c8n(C)c(=O)n9C8CCC(=O)NC8=O)CC7)CC5)CC6)nc4c3F)c12` (stereo partly drawn) [Compound 108, [(3S,8S)-8-[[4-(3,8-Diazabicyclo[3.2.1]octan-3-yl)-7-(8-ethynyl-7-fluoro-1-naphthyl)-8-fluoro-pyrido[4,3-d]pyrimidin-2-yl]oxymethyl]-1,2,3,5,6,7-hexahydropyrrolizin-3-yl]methyl4-[[[1-[1-(2,6-dioxo-3-piperidyl)-3-methyl-2-oxo-benzimidazol-4-yl]-4-piperidyl]-methyl-amino]methyl]piperidine-1-carboxylate], the DC50 was less than 100 nM.

For the compound `C#Cc1c(F)ccc2cccc(-c3ncc4c(N5CC6CCC(C5)N6)nc(OC[C@@]56CCCN5[C@H](COC(=O)NCCCN(C)C5CCN(c7cccc8c7n(C)c(=O)n8C7CCC(=O)NC7=O)CC5)CC6)nc4c3F)c12` (stereo partly drawn) [Compound 109, [(3S,8S)-8-[[4-(3,8-Diazabicyclo[3.2.1]octan-3-yl)-7-(8-ethynyl-7-fluoro-1-naphthyl)-8-fluoro-pyrido[4,3-d]pyrimidin-2-yl]oxymethyl]-1,2,3,5,6,7-hexahydropyrrolizin-3-yl]methylN-[3-[[1-[1-(2,6-dioxo-3-piperidyl)-3-methyl-2-oxo-benzimidazol-4-yl]-4-piperidyl]-methyl-amino]propyl]carbamate], the DC50 is not below 300 nM.

Regarding `C#Cc1c(F)ccc2cccc(-c3ncc4c(N5CC6CCC(C5)N6)nc(OC[C@@]56CCCN5[C@H](COC(=O)NCCCC(=O)N5CCN(c7cccc8c7n(C)c(=O)n8C7CCC(=O)NC7=O)CC5)CC6)nc4c3F)c12` (stereo partly drawn) [Compound 110, ((3S,7aS)-7a-(((4-((1R,5S)-3,8-Diazabicyclo[3.2.1]octan-3-yl)-7-(8-ethynyl-7-fluoronaphthalen-1-yl)-8-fluoropyrido[4,3-d]pyrimidin-2-yl)oxy)methyl)hexahydro-1H-pyrrolizin-3-yl)methyl(4-(4-(1-(2,6-dioxopiperidin-3-yl)-3-methyl-2-oxo-2,3-dihydro-1H-benzo[d]imidazol-4-yl)piperazin-1-yl)-4-oxobutyl)carbamate], the DC50 was not below 300 nM.

Consider `C#Cc1c(F)ccc2cccc(-c3ncc4c(N5CC6CCC(C5)N6)nc(OC[C@@]56CCCN5[C@H](COC(=O)N5CCO[C@@H](CN7CCN(c8cccc9c8n(C)c(=O)n9C8CCC(=O)NC8=O)CC7)C5)CC6)nc4c3F)c12` (stereo partly drawn) [Compound 111, [(3S,8S)-8-[[4-(3,8-Diazabicyclo[3.2.1]octan-3-yl)-7-(8-ethynyl-7-fluoro-1-naphthyl)-8-fluoro-pyrido[4,3-d]pyrimidin-2-yl]oxymethyl]-1,2,3,5,6,7-hexahydropyrrolizin-3-yl]methyl (2S)-2-[[4-[1-(2,6-dioxo-3-piperidyl)-3-methyl-2-oxo-benzimidazol-4-yl]piperazin-1-yl]methyl]morpholine-4-carboxylate-2,6-dione], for which the DC50 is less than 100 nM.

As for `C#Cc1c(F)ccc2cccc(-c3ncc4c(N5CC6CCC(C5)N6)nc(OC[C@@]56CCCN5[C@H](COC(=O)N5CCC(CN7CCN(c8cccc9c8n(C)c(=O)n9C8CCC(=O)NC8=O)CC7)CC5)CC6)nc4c3F)c12` (stereo partly drawn) [Compound 112, [(3S,8S)-8-[[4-(3,8-Diazabicyclo[3.2.1]octan-3-yl)-7-(8-ethynyl-7-fluoro-1-naphthyl)-8-fluoro-pyrido[4,3-d]pyrimidin-2-yl]oxymethyl]-1,2,3,5,6,7-hexahydropyrrolizin-3-yl]methyl 4-[[4-[1-(2,6-dioxo-3-piperidyl)-3-methyl-2-oxo-benzimidazol-4-yl]piperazin-1-yl]methyl]piperidine-1-carboxylate], the DC50 was less than 100 nM.

As to `C#Cc1c(F)ccc2cccc(-c3ncc4c(N5CC6CCC(C5)N6)nc(OC[C@@]56CCCN5[C@H](COC(=O)N5CC(CN7CCN(c8cccc9c8n(C)c(=O)n9C8CCC(=O)NC8=O)CC7)C5)CC6)nc4c3F)c12` (stereo partly drawn) [Compound 113, [(3S,8S)-8-[[4-(3,8-Diazabicyclo[3.2.1]octan-3-yl)-7-(8-ethynyl-7-fluoro-1-naphthyl)-8-fluoro-pyrido[4,3-d]pyrimidin-2-yl]oxymethyl]-1,2,3,5,6,7-hexahydropyrrolizin-3-yl]methyl 3-[[4-[1-(2,6-dioxo-3-piperidyl)-3-methyl-2-oxo-benzimidazol-4-yl]piperazin-1-yl]methyl]azetidine-1-carboxylate], the DC50 was 100 to 300 nM.

Take `C#Cc1c(F)ccc2cccc(-c3ncc4c(N5CC6CCC(C5)N6)nc(OC[C@@]56CCCN5[C@H](COC(=O)N5CCC(OCCCC#Cc7ccc8c(c7)n(C)c(=O)n8C7CCC(=O)NC7=O)CC5)CC6)nc4c3F)c12` (stereo partly drawn) [Compound 114, [(3S,8S)-8-[[4-(3,8-Diazabicyclo[3.2.1]octan-3-yl)-7-(8-ethynyl-7-fluoro-1-naphthyl)-8-fluoro-pyrido[4,3-d]pyrimidin-2-yl]oxymethyl]-1,2,3,5,6,7-hexahydropyrrolizin-3-yl]methyl 4-[5-[1-(2,6-dioxo-3-piperidyl)-3-methyl-2-oxo-benzimidazol-5-yl]pent-4-ynoxy]piperidine-1-carboxylate]: the DC50 was less than 100 nM.

On to `C#Cc1c(F)ccc2cccc(-c3ncc4c(N5CC6CCC(C5)N6)nc(OC[C@@]56CCCN5[C@H](COC(=O)N5CCC(OCc7ccc8c(c7)n(C)c(=O)n8C7CCC(=O)NC7=O)CC5)CC6)nc4c3F)c12` (stereo partly drawn) [Compound 116, [(3S,8S)-8-[[4-(3,8-Diazabicyclo[3.2.1]octan-3-yl)-7-(8-ethynyl-7-fluoro-1-naphthyl)-8-fluoro-pyrido[4,3-d]pyrimidin-2-yl]oxymethyl]-1,2,3,5,6,7-hexahydropyrrolizin-3-yl]methyl4-[[1-(2,6-dioxo-3-piperidyl)-3-methyl-2-oxo-benzimidazol-5-yl]methoxy]piperidine-1-carboxylate], for which the DC50 was not below 300 nM.
